{
  "source": "paper PMC9698716",
  "about": "“From Serendipity to Rational Identification of the 5,6,7,8-Tetrahydrobenzo[4,5]thieno[2,3-d]pyrimidin-4(3H)-one Core as a New Chemotype of AKT1 Inhibitors for Acute Myeloid Leukemia” (Pharmaceutics, 2022)",
  "type_in_all_cases": "cell-based, human",
  "key": {"[1]": {"system": "E4-BP1 phosphorylation at site S65", "experiment": "Western blot of AKT signaling pathway in AML cell lines", "conditions": "increasing concentrations (0.5 and 5 µM), 24 and 48 h, OCI-AML3, IMS-M2, OCI-AML2", "protocol": "(§1) Immunoblotting was conducted as described previously. Briefly, fresh cell pellets (0.2–0.5 × 10^6/test for AML cell lines) were dissolved directly in 30–60 μL of Laemmli sample buffer 1× (1.5 M Tris-HCl pH 6.8, glycerol, β-mercaptoethanol, SDS, bromophenol blue) and boiled at 95 °C for 5 min. The proteins were separated by SDS-polyacrylamide gel electrophoresis (SDS-PAGE) on Precast 4–15% gradient gels (Biorad, Hercules, CA, USA) transferred onto nitrocellulose membranes (GE Healthcare, Piscataway, NJ, USA) and probed with specific primary antibodies followed by horseradish peroxidase-conjugated secondary antibodies (GE Healthcare Lifesciences). The polypeptides were visualized using enhanced chemiluminescence (Luminata Crescendo, Merck Millipore, Burlington, MA, USA) according to the manufacturer’s instructions. The bands were visualized using the Biorad Chemidoc and the images were processed using the image lab software (Biorad) and Adobe Photoshop (Ps CC 2019). β-actin expression levels were used as a control for protein loading, as indicated.\n(§2) The primary antibodies used for western blot analyses are the following: mouse monoclonal anti-human β-actin (Clone AC-15; dilution 1:5000) from Sigma Aldrich (St. Louis, MO, USA); rabbit monoclonal anti-human Cleaved poly (ADP-ribose) polymerase (c-PARP) (Clone Asp 214; dilution 1:1000); rabbit monoclonal phospho-Akt (Ser473) (clone D9E, dilution 1.500); rabbit polyclonal phospho-mTOR (Ser2448) (dilution 1:500); rabbit polyclonal phospho-4E-BP1 (Ser65) (dilution 1:500); rabbit monoclonal Akt1 (clone D9R8K, dilution 1:500); rabbit polyclonal 4E-BP1 (dilution 1:500); and rabbit polyclonal mTOR (dilution 1:500), all from Cell Signaling (Cell Signaling Technology, Inc., Danvers, MA, USA)."}, "[2]": {"system": "phospho-AKT, at site S473", "experiment": "Western blot of AKT signaling pathway in AML cell lines", "protocol": "as §1, §2"}, "[3]": {"system": "phospho-mTOR, at site S2448", "experiment": "Western blot of AKT signaling pathway in AML cell lines", "conditions": "increasing concentrations (0.5 and 5 µM), 24 and 48 h, OCI-AML3, IMS-M2, OCI-AML2", "protocol": "as §1, §2"}, "[4]": {"system": "normal donor CD34+ hematopoietic stem/progenitor cells (HSPC)", "experiment": "Colony forming unit (CFU) assay", "conditions": "14 days", "text": "The human AML cell lines, OCI-AML3 (carrying the NPM1 gene mutation A and the DNMT3A^R882C mutation), IMS-M2 (carrying the NPM1 gene mutation A), OCI-AML2 (with the wild-type NPM1 and DNMT3A^R635W mutation), and SKM-1 and MOLM-13 (with the wild-type NPM1) were previously reported. The cell lines were purchased from the Deutsche Sammelung von Mikroorganismen und Zellkulturen (DSMZ) (Braunschweig, Germany) cell bank and maintained according to the vendors’ instructions. Briefly, cultured cells were split every 3 days and maintained in an exponential growth phase. The cell lines were tested for mycoplasma using the Universal Mycoplasma Detection Kit (ATCC). The OCI-AML3 were grown in α-MEM supplemented with 20% fetal bovine serum, 100 U/mL penicillin, and 100 μg/mL streptomycin (P/S), and all other cell lines were cultured in RPMI and supplemented with a 10–20% fetal bovine serum and 100 U/mL penicillin and 100 μg/mL streptomycin. The cells were kept at 37 °C in a 5% CO2 incubator. Prior to screening, the appropriate cell concentration for all cell lines was determined. […] The metabolic cell activity was measured by using the CellTiter Blue proliferation agent (Roche) as described in the manufacturer’s procedure. […] The fluorescence intensity was measured using the automated Tecan plate reader (Tecan Group Ltd., Männedorf, Switzerland) at an excitation/emission wavelength of 531/572 nm. The fluorescence readouts were reported as relative fluorescence units (RFU) and read on a luminescence plate reader (Infinite 200 Pro, Tecan, CA, USA). […] The results are expressed as mean ± standard error of the mean (SEM). […]\nFor the CFU assay, 500 CD34+ human cells were plated in a MethoCult™ enriched medium (see Table S4) on a 6-well plate (untreated cells versus T126 at 1, 2.5, and 5 µM, each condition in triplicate). The plates were then incubated for 14 days at 37 °C (5% CO2), and the images were captured and the colonies counted by STEMvision™. […]"}},
  "data": [
    {"compound": "O=c1[nH]c(-c2ccc(O)c(O)c2)nc2sc3c(c12)CCCC3", "note": "[T126]", "values": [
      {"measurement": "phosphorylation of 4E-BP1 (S65)", "setting": "[1]", "result": "reduction of its phosphorylation levels"},
      {"measurement": "inhibition of p-AKT", "setting": "[2]; OCI-AML3, 4 h, 1 and 2.5 µM", "result": "inhibition of p-AKT was already observed"},
      {"measurement": "phosphorylation of AKT1 (S473)", "setting": "[2]; increasing concentrations (0.5 and 5 µM), 24 and 48 h, OCI-AML3, IMS-M2, OCI-AML2", "result": "decreased phosphorylation"},
      {"measurement": "phosphorylation of mTOR (S2448)", "setting": "[3]", "result": "decreased phosphorylation"},
      {"measurement": "colony forming ability of human CD34+ HSPC", "setting": "[4]; 1 µM", "result": "did not inhibit"},
      {"measurement": "colony forming ability of human CD34+ HSPC", "setting": "[4]; 2.5 µM", "result": "did not inhibit"},
      {"measurement": "decrease of clonogenic efficiency compared to untreated control", "setting": "[4]; 5 µM", "result": "about 20%"}
    ]}
  ]
}
